Experimental data reported in patent US6355799B1, “Substituted benzene compounds, process for their preparation, and herbicidal and defoliant compositions containing them” (ISK Americas Incorporated, priority 1997, dated 2002).

Columns and labels:
Type in all cases: in vivo
[1] = tested on: redroot pigweed (Amaranthus retroflexus, AMARE); assay: Pre-emerge test, greenhouse herbicide activity screening; settings: pre-emerge, phytotoxicity rating 0-100 at 14 days after application
In short: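 Herbicidal damage is scored 0 (none) to 100 (complete plant death) two weeks after a simulated field spray. Rates span 15–1000 g ai/ha, delivered in acetone at 187 l/ha. For post-emergence treatments, plants have 2–3 leaves and the spray carries 0.25% v/v non-ionic surfactant.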

[2] = tested on: barnyardgrass (Echinochloa crus-galli, ECHCG); assay: as above; settings: pre-emerge, phytotoxicity rating 0-100 at 14 days after application
In short: (§1)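 Fourteen days after spraying, crop and weed injury was graded visually from 0, no effect, to 100, every plant dead. Test substances were dissolved in acetone and applied at 15–1000 g ai/ha with a flat-fan nozzle. Application was either pre-emergence, one day after sowing, or post-emergence at the 2–3 leaf stage.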

[3] = tested on: green foxtail (Setaria viridis, SETVI); assay: as above; settings: pre-emerge, phytotoxicity rating 0-100 at 14 days after application
In short: as §1

[4] = tested on: ivyleaf morningglory (Ipomoea hederacea, IPOHE); assay: as above; settings: pre-emerge, phytotoxicity rating 0-100 at 14 days after application
In short: as §1

[5] = tested on: johnsongrass (Sorghum halepense, SORHA); assay: as above; settings: pre-emerge, phytotoxicity rating 0-100 at 14 days after application
In short: as §1

[6] = tested on: lambsquarters (Chenopodium album, CHEAL); assay: as above; settings: pre-emerge, phytotoxicity rating 0-100 at 14 days after application
In short: as §1

[7] = tested on: large crabgrass (Digitaria sanguinalis, DIGSA); assay: as above; settings: pre-emerge, phytotoxicity rating 0-100 at 14 days after application
In short: as §1

[8] = tested on: sicklepod (Cassia obtusifolia, CASOB); assay: as above; settings: pre-emerge, phytotoxicity rating 0-100 at 14 days after application
In short: as §1

[9] = tested on: velvetleaf (Abutilon theophrasti, ABUTH); assay: as above; settings: pre-emerge, phytotoxicity rating 0-100 at 14 days after application
In short: as §1

[10] = tested on: field corn (Zea mays L., var. Dekalb 535, CORN); assay: Pre-emerge test, crop safety; settings: crop damage, pre-emerge, phytotoxicity rating 0-100 at 14 days after application
In short: (§2)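 Compounds in acetone were track-sprayed at 187 l/ha, 15–1000 g ai/ha, onto sandy loam pots. Pre-emerge seeds were sown one day before spraying, with surface watering afterwards. Post-emerge plants were at the 2–3 leaf stage and sprayed with 0.25% v/v non-ionic surfactant. Injury was rated 0–100 at 14 days.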

[11] = tested on: upland rice (Oryza sp., var. Tebonnet, RICE); assay: Pre-emerge test, crop safety; settings: crop damage, pre-emerge, phytotoxicity rating 0-100 at 14 days after application
In short: as §2

[12] = tested on: barnyardgrass (Echinochloa crus-galli, ECHCG); assay: Post-emerge test, greenhouse herbicide activity screening; settings: post-emerge, phytotoxicity rating 0-100 at 14 days after application
In short: (§3)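 Compounds in acetone were track-sprayed at 15–1000 g ai/ha: pre-emergence onto soil sown the previous day, then top-watered to incorporate and later bottom-watered; post-emergence onto 2–3 leaf plants with 0.25% v/v surfactant, bottom-watered only. Ratings on a 0–100 phytotoxicity scale were taken at day 14.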

[13] = tested on: green foxtail (Setaria viridis, SETVI); assay: as above; settings: post-emerge, phytotoxicity rating 0-100 at 14 days after application
In short: as §3

[14] = tested on: ivyleaf morningglory (Ipomoea hederacea, IPOHE); assay: as above; settings: post-emerge, phytotoxicity rating 0-100 at 14 days after application
In short: as §3

[15] = tested on: johnsongrass (Sorghum halepense, SORHA); assay: as above; settings: post-emerge, phytotoxicity rating 0-100 at 14 days after application
In short: as §3

[16] = tested on: lambsquarters (Chenopodium album, CHEAL); assay: as above; settings: post-emerge, phytotoxicity rating 0-100 at 14 days after application
In short: as §3

[17] = tested on: large crabgrass (Digitaria sanguinalis, DIGSA); assay: as above; settings: post-emerge, phytotoxicity rating 0-100 at 14 days after application
In short: as §3

[18] = tested on: redroot pigweed (Amaranthus retroflexus, AMARE); assay: as above; settings: post-emerge, phytotoxicity rating 0-100 at 14 days after application
In short: as §3

[19] = tested on: sicklepod (Cassia obtusifolia, CASOB); assay: as above; settings: post-emerge, phytotoxicity rating 0-100 at 14 days after application
In short: as §3

[20] = tested on: velvetleaf (Abutilon theophrasti, ABUTH); assay: as above; settings: post-emerge, phytotoxicity rating 0-100 at 14 days after application
In short: as §3

[21] = tested on: field corn (Zea mays L., var. Dekalb 535, CORN); assay: Post-emerge test, crop safety; settings: post-emerge, crop damage rating 0-100 at 14 days after application
In short: as §1

[22] = tested on: upland rice (Oryza sp., var. Tebonnet, RICE); assay: Post-emerge test, crop safety; settings: post-emerge, crop damage rating 0-100 at 14 days after application
In short: as §1

COc1ccc(COC(=O)Nc2c(C)c(Cl)cc(F)c2-n2c(=O)cc(C(F)(F)F)n(C)c2=O)cc1OC [4-63]
90: Pre-emerge Herbicidal Activity RICE ([11]; rate 250 g ai/ha)
95: Pre-emerge Herbicidal Activity DIGSA ([7]; rate 250 g ai/ha)
60: Post-emerge Herbicidal Activity CASOB ([19]; 63 g ai/ha) | Post-emerge Herbicidal Activity RICE ([22]; 250 g ai/ha)
40: Pre-emerge Herbicidal Activity IPOHE ([4]; rate 63 g ai/ha) | Pre-emerge Herbicidal Activity CASOB ([8]; rate 63 g ai/ha) | Pre-emerge Herbicidal Activity RICE ([11]; rate 63 g ai/ha)
30: Pre-emerge Herbicidal Activity ECHCG ([2]; rate 63 g ai/ha) | Pre-emerge Herbicidal Activity SORHA ([5]; rate 63 g ai/ha) | Post-emerge Herbicidal Activity SETVI ([13]; 250 g ai/ha) | Post-emerge Herbicidal Activity CORN ([21]; 250 g ai/ha)
70: Pre-emerge Herbicidal Activity ECHCG ([2]; rate 250 g ai/ha) | Pre-emerge Herbicidal Activity SETVI ([3]; rate 63 g ai/ha) | Pre-emerge Herbicidal Activity DIGSA ([7]; rate 63 g ai/ha)
10: Post-emerge Herbicidal Activity SORHA ([15]; 250 g ai/ha) | Post-emerge Herbicidal Activity DIGSA ([17]; 250 g ai/ha) | Post-emerge Herbicidal Activity CORN ([21]; 63 g ai/ha) | Post-emerge Herbicidal Activity RICE ([22]; 63 g ai/ha)
80: Post-emerge Herbicidal Activity CHEAL ([16]; 63 g ai/ha)
50: Pre-emerge Herbicidal Activity SORHA ([5]; rate 250 g ai/ha)
0: Pre-emerge Herbicidal Activity CORN ([10]; rate 63 g ai/ha) | Post-emerge Herbicidal Activity ECHCG ([12]; 63 g ai/ha) | Post-emerge Herbicidal Activity SETVI ([13]; 63 g ai/ha) | Post-emerge Herbicidal Activity SORHA ([15]; 63 g ai/ha) | Post-emerge Herbicidal Activity DIGSA ([17]; 63 g ai/ha)
100: Pre-emerge Herbicidal Activity AMARE ([1]; rate 63 g ai/ha) | Pre-emerge Herbicidal Activity AMARE ([1]; rate 250 g ai/ha) | Pre-emerge Herbicidal Activity SETVI ([3]; rate 250 g ai/ha) | Pre-emerge Herbicidal Activity IPOHE ([4]; rate 250 g ai/ha) | Pre-emerge Herbicidal Activity CHEAL ([6]; rate 63 g ai/ha) | Pre-emerge Herbicidal Activity CHEAL ([6]; rate 250 g ai/ha) | Pre-emerge Herbicidal Activity CASOB ([8]; rate 250 g ai/ha) | Pre-emerge Herbicidal Activity ABUTH ([9]; rate 63 g ai/ha) | Pre-emerge Herbicidal Activity ABUTH ([9]; rate 250 g ai/ha) | Post-emerge Herbicidal Activity IPOHE ([14]; 63 g ai/ha) | Post-emerge Herbicidal Activity IPOHE ([14]; 250 g ai/ha) | Post-emerge Herbicidal Activity CHEAL ([16]; 250 g ai/ha) | Post-emerge Herbicidal Activity AMARE ([18]; 63 g ai/ha) | Post-emerge Herbicidal Activity AMARE ([18]; 250 g ai/ha) | Post-emerge Herbicidal Activity CASOB ([19]; 250 g ai/ha) | Post-emerge Herbicidal Activity ABUTH ([20]; 63 g ai/ha) | Post-emerge Herbicidal Activity ABUTH ([20]; 250 g ai/ha)
35: Pre-emerge Herbicidal Activity CORN ([10]; rate 250 g ai/ha)
20: Post-emerge Herbicidal Activity ECHCG ([12]; 250 g ai/ha)
